US20230241024A1, “METHODS OF TREATING METABOLIC DISORDERS” (Sunovion Pharmaceuticals Inc., priority 2021, published 2023)

Key:
[1] = test system: lean male C57BL/6J mice; test: Acute oral glucose tolerance test (OGTT), plasma glucose and insulin, lean mice (Example 1.1); parameters: Plasma glucose AUC Mean: dose or concentration left out as unconfirmed
Method: (§1) A vehicle control group was included in the study design. […] Blood samples were taken at various timepoints during the test and subsequently assessed for plasma glucose and insulin content.
Mice were weighed on the day of arrival (Thursday) and singly housed upon arrival and throughout the study in polypropylene cages on a normal phase 12 h light-dark cycle (lights on 07:00). Cages contained sawdust, red acrylic house, red acrylic tunnel, sizzlenest and nestlet at a temperature of 21±4° C. Upon arrival, mice were weighed and given wet mash to aid recovery from transport. Mice were weighed the following day and on the Monday of the following week.
Experimental Procedures: Animals underwent a three-day handling phase, which commenced five days after arrival. On the final day of handling the mice were dosed orally once with vehicle. At the start of the handling phase, animals were weighed (to the nearest 0.1 g using an electronic top-pan balance) and allocated into 6 weight-matched treatment groups by a Statistician. On the day of baseline dosing, mice were fasted for approximately 16 hours to a timed schedule, beginning at 16:45. The mice were placed into individual clean cages with access to water, but not food. The following morning the mice were moved to a separate room which was maintained with the same environmental conditions and underwent an OGTT. […] Five minutes later, the mice in groups A, C, D, E and F were dosed by the oral route (30 minutes pre-glucose). […] All mice were given an oral glucose load of D-glucose at a dose of 2.0 g/kg (400 mg/mL solution; dose volume 5 mL/kg). Further blood samples (30 µl) were taken 3 minutes before glucose administration (B2) and at 15 (20 µl), 30 (20 µl), 60 (25 µl) and 120 (25 µl) minutes post glucose administration. All blood samples were collected into lithium heparinised tubes (Sarstedt Microvette CB300LH) and plasma separated by centrifugation to produce a single aliquot of plasma which was frozen (-80° C.) and subsequently assayed for glucose (Thermoelectron infinity glucose reagent, TR15421) and insulin (Alpco mouse ultrasensitive insulin kit 80 INSMSU-E10).
Upon completion of the OGTT, all animals were humanely killed by a Schedule 1 method (exposure to a rising concentration of CO2 with confirmation of death by cervical dislocation). A terminal blood sample was taken from groups A, C, D, E and F only by cardiac puncture into a lithium heparin-coated tube (Sarstedt CB300LH) and the plasma separated by centrifugation.

[2] = test system: lean, fasted, male CD1 mice; test: Acute intravenous glucose tolerance test (IVGTT), plasma glucose and insulin (Example 6)
Method: as §1
Via a lateral tail vein, a baseline blood sample (B1; 30 µl) was taken from all animals prior to vehicle or drug treatment. Five minutes later, mice were dosed with Treatment 1 detailed by the oral route (see above table; approx. 30 minutes pre-glucose). Thirty minutes later, mice were dosed with Treatment 2 by the intravenous route (by a lateral tail vein). […] A B2 sample (30 µl) was also taken briefly before glucose administration. All blood samples (from the tail vein) were collected into lithium heparinised tubes (Sarstedt Microvette CB300LH) and plasma separated by centrifugation to produce a single aliquot of plasma which was frozen (approx. -80° C.) and subsequently assayed for glucose (Thermoelectron infinity glucose reagent, TR15421) and insulin (Alpco Ultrasensitive mouse insulin ELISA) as single replicates.

[3] = test system: male db/db mice; test: Acute oral glucose tolerance test (OGTT), plasma glucose and insulin, diabetic db/db mice (Example 1.2)
Method: as §1
Mice were weighed on the day of arrival (Thursday) and group housed in polypropylene cages on a normal phase 12 h light-dark cycle (lights on 07:00). Cages contained sawdust, red house, red tunnel, Sizzlenest and nestlet at a temperature of 24±2° C. Upon arrival, mice were weighed and given wet mash to aid recovery from transport. Mice were weighed the following day and on the Monday of the following week.
Experimental Procedures: Animals underwent a three-day handling phase, which commenced five days after arrival. On the final day of handling the mice were dosed orally once with vehicle. At the start of the handling phase, animals were weighed (to the nearest 0.1 g using an electronic top-pan balance) and allocated into 6, weight matched treatment groups by a Statistician. On the day of baseline dosing, mice were fasted for approximately 16 hours to a timed schedule, beginning at 16:45. The mice were placed into individual clean cages with access to water, but not food. The following morning the mice were moved to a separate room which was maintained with the same environmental conditions and underwent an OGTT. […] Five minutes later, the mice in groups A, C, D, E and F were dosed by the oral route (30 minutes pre-glucose). […] All mice were given an oral glucose load of D-glucose at a dose of 2.0 g/kg (400 mg/mL solution; dose volume 5 mL/kg). Further blood samples (30 µl) were taken 3 minutes before glucose administration (B2) and at 15 (20 µl), 30 (20 µl), 60 (25 µl) and 120 (25 µl) minutes post glucose administration. All blood samples were collected into lithium heparinised tubes (Sarstedt Microvette CB300LH) and plasma separated by centrifugation to produce a single aliquot of plasma which was frozen (-80° C.) and subsequently assayed for glucose (Thermoelectron infinity glucose reagent, TR15421) and insulin (Alpco mouse ultrasensitive insulin kit 80 INSMSU-E10).
Upon completion of the OGTT, all animals were humanely killed by a Schedule 1 method (exposure to a rising concentration of CO2 with confirmation of death by cervical dislocation). A terminal blood sample was taken from groups A, C, D, E and F only by cardiac puncture into a lithium heparin-coated tube (Sarstedt CB300LH) and the plasma separated by centrifugation. A single plasma aliquot (approximately 100 µl) was stored frozen prior to shipment of the compound to Charles River Laboratories, USA.

[4] = 15 minutes, Exendin-4 1 µg/kg ip
[5] = 30 minutes, Exendin-4 1 µg/kg ip
[6] = 60 minutes, Exendin-4 1 µg/kg ip
[7] = 120 minutes, Exendin-4 1 µg/kg ip
[8] = AUC above baseline (0-60 minutes), Exendin-4 1 µg/kg ip
[9] = AUC above baseline (0-120 minutes), Exendin-4 1 µg/kg ip
[10] = Area under curve (0-60 minutes), Exendin-4 1 µg/kg ip
[11] = Area under curve (0-120 minutes), Exendin-4 1 µg/kg ip
[12] = Area under curve (0-120 minutes), Exendin-4 ip
[13] = Post-treatment baseline (B2), Exendin-4 1 µg/kg ip
[14] = 40 µg/kg iv group, Post-treatment baseline (B2)
[15] = 40 µg/kg iv with Glucose 1 g/kg
[16] = 40 µg/kg iv with Glucose 1 g/kg, 5 minutes
[17] = 40 µg/kg iv with Glucose 1 g/kg, 10 minutes
[18] = 40 µg/kg iv with Glucose 1 g/kg, 30 minutes
[19] = 40 µg/kg iv with Glucose 1 g/kg, 60 minutes
[20] = 15 minutes, Exendin-4 300 µg/kg ip
[21] = 30 minutes, Exendin-4 300 µg/kg ip
[22] = 60 minutes, Exendin-4 300 µg/kg ip
[23] = 120 minutes, Exendin-4 300 µg/kg ip
[24] = AUC above baseline (0-60 minutes), Exendin-4 300 µg/kg ip
[25] = AUC above baseline (0-120 minutes), Exendin-4 300 µg/kg ip
[26] = Area under curve (0-60 minutes), Exendin-4 300 µg/kg ip
[27] = Area under curve (0-60 minutes), Exendin-4 300 µpg/kg ip
[28] = Area under curve (0-120 minutes), Exendin-4 300 µg/kg ip
[29] = Area under curve (0–120 minutes), Exendin-4 300 µg/kg ip
[30] = Post-treatment baseline (B2), Exendin-4 300 µg/kg ip

Exendin-4: GLP 1 receptor agonist utilised as a positive control
Plasma glucose % of vehicle [1, 4]: 65.9% | Plasma glucose Mean [1, 4]: 15.13 mM | Plasma insulin % of vehicle [1, 4]: 154.4% | Plasma insulin Mean [1, 4]: 1.92 ng/mL | Plasma glucose % of vehicle [1, 5]: 53.3% | Plasma glucose Mean [1, 5]: 12.81 mM | Plasma insulin % of vehicle [1, 5]: 110.3% | Plasma insulin Mean [1, 5]: 1.10 ng/mL | Plasma glucose % of vehicle [1, 6]: 58.4% | Plasma glucose Mean [1, 6]: 8.56 mM | Plasma insulin % of vehicle [1, 6]: 73.1% | Plasma insulin Mean [1, 6]: 0.37 ng/mL | Plasma glucose % of vehicle [1, 7]: 74.8% | Plasma glucose Mean [1, 7]: 7.46 mM | Plasma insulin % of vehicle [1, 7]: 63.5% | Plasma insulin Mean [1, 7]: 0.27 ng/mL | Plasma glucose AUCB2 Difference from vehicle [1, 8]: -8.32 mM·h | Plasma glucose AUCB2 Mean [1, 8]: 1.49 mM·h | Plasma insulin AUC above baseline Difference from vehicle [1, 8]: 0.02 ng·h/mL | Plasma insulin AUC above baseline Mean [1, 8]: 0.72 ng·h/mL | Plasma glucose AUCB2 Difference from vehicle [1, 9]: -12.99 mM·h | Plasma glucose AUCB2 Mean [1, 9]: -0.58 mM·h | Plasma insulin AUC above baseline Difference from vehicle [1, 9]: -0.28 ng·h/mL | Plasma insulin AUC above baseline Mean [1, 9]: 0.76 ng·h/mL | Plasma glucose AUC % of vehicle [1, 10]: 61.5% | Plasma insulin AUC % of vehicle [1, 10]: 125.7% | Plasma insulin AUC Mean [1, 10]: 1.06 ng·h/mL | Plasma insulin AUC % of vehicle [1, 11]: 110.9% | Plasma insulin AUC Mean [1, 11]: 1.48 ng·h/mL | Plasma glucose AUC % of vehicle [1, 12]: 63.6% | Plasma glucose AUC Mean [1, 12]: 20.44 mM·h | plasma glucose vs vehicle ([1]; Exendin-4 1 µg/kg ip 10 minutes before glucose load, all timepoints post-glucose): statistically significant (p<0.01) reduction | Plasma glucose % of vehicle [1, 13]: 111.4% | Plasma glucose Mean [1, 13]: 10.66 mM | Plasma insulin % of vehicle [1, 13]: 221.2% | Plasma insulin Mean [1, 13]: 0.34 ng/mL | Plasma glucose % of vehicle [2, 14]: 98.6% | Plasma glucose Mean [2, 14]: 9.30 mM | Plasma insulin % of vehicle [2, 14]: 95.1% | Plasma insulin Mean [2, 14]: 0.17 ng/mL | Plasma glucose - AUC above baseline (AUCB2) (0-60 minutes), Mean [2, 15]: 3.22 mM·h | Plasma glucose AUC (0-60 minutes), % of vehicle [2, 15]: 73.5% | Plasma glucose AUC, Area under curve (0-60 minutes), Mean [2, 15]: 12.65 mM·h | Plasma glucose AUCB2 (0-60 minutes), Difference from vehicle [2, 15]: -4.43 mM·h | Plasma insulin - AUC above baseline (AUCB2) (0-60 minutes), Mean [2, 15]: 0.73 ng·h/mL | Plasma insulin - Area under curve AUC (0-60 minutes), Mean [2, 15]: 0.93 ng·h/mL | Plasma insulin AUC (0-60 minutes), % of vehicle [2, 15]: 218.8% | Plasma insulin AUCB2 (0-60 minutes), Difference from vehicle [2, 15]: 0.48 ng·h/mL | Plasma glucose % of vehicle [2, 16]: 92.6% | Plasma glucose Mean [2, 16]: 28.43 mM | Plasma insulin % of vehicle [2, 16]: 347.3% | Plasma insulin Mean [2, 16]: 1.99 ng/mL | Plasma glucose % of vehicle [2, 17]: 89.4% | Plasma glucose Mean [2, 17]: 22.15 mM | Plasma insulin % of vehicle [2, 17]: 327.2% | Plasma insulin Mean [2, 17]: 1.84 ng/mL | Plasma glucose % of vehicle [2, 18]: 59.0% | Plasma glucose Mean [2, 18]: 8.35 mM | Plasma insulin % of vehicle [2, 18]: 149.8% | Plasma insulin Mean [2, 18]: 0.57 ng/mL | Plasma glucose % of vehicle [2, 19]: 57.8% | Plasma glucose Mean [2, 19]: 6.36 mM | Plasma insulin % of vehicle [2, 19]: 117.2% | Plasma insulin Mean [2, 19]: 0.42 ng/mL | plasma insulin vs vehicle ([2]; Exendin-4 40 µg/kg iv, 5, 10 and 30 minutes post glucose load): statistically significant increase | Plasma insulin peak ([2]; Exendin-4 40 µg/kg iv, 5 minutes post glucose load): 1.99 ng/mL | Plasma glucose % of vehicle [3, 20]: 39.5% | Plasma glucose Mean [3, 20]: 20.37 mM | Plasma insulin % of vehicle [3, 20]: 176.4% | Plasma insulin Mean [3, 20]: 11.33 ng/mL | Plasma glucose % of vehicle [3, 21]: 34.7% | Plasma glucose Mean [3, 21]: 19.07 mM | Plasma insulin % of vehicle [3, 21]: 228.5% | Plasma insulin Mean [3, 21]: 9.42 ng/mL | Plasma glucose % of vehicle [3, 22]: 32.9% | Plasma glucose Mean [3, 22]: 12.91 mM | Plasma insulin % of vehicle [3, 22]: 210.5% | Plasma insulin Mean [3, 22]: 8.95 ng/mL | Plasma glucose % of vehicle [3, 23]: 52.4% | Plasma glucose Mean [3, 23]: 10.71 mM | Plasma insulin % of vehicle [3, 23]: 238.7% | Plasma insulin Mean [3, 23]: 9.87 ng/mL | Plasma glucose AUC above baseline Difference from vehicle [3, 24]: -28.49 mM·h | Plasma glucose AUC above baseline Mean [3, 24]: -1.09 mM·h | Plasma insulin AUC above baseline Difference from vehicle [3, 24]: -0.08 ng·h/mL | Plasma insulin AUC above baseline Mean [3, 24]: 0.89 ng·h/mL | Plasma glucose AUC above baseline Difference from vehicle [3, 25]: -47.99 mM·h | Plasma glucose AUC above baseline Mean [3, 25]: -8.04 mM·h | Plasma insulin AUC above baseline Difference from vehicle [3, 25]: -0.35 ng·h/mL | Plasma insulin AUC above baseline Mean [3, 25]: 0.98 ng·h/mL | Plasma insulin AUC % of vehicle [3, 26]: 213.0% | Plasma insulin AUC Mean [3, 26]: 9.93 ng·h/mL | Plasma glucose AUC % of vehicle [3, 27]: 38.8% | Plasma glucose AUC Mean [3, 27]: 17.77 mM·h | Plasma insulin AUC % of vehicle [3, 28]: 223.1% | Plasma insulin AUC Mean [3, 28]: 19.34 ng·h/mL | Plasma glucose AUC % of vehicle [3, 29]: 39.6% | Plasma glucose AUC Mean [3, 29]: 30.22 mM·h | plasma glucose vs vehicle ([3]; Exendin-4 300 µg/kg ip, all timepoints post-glucose): statistically significant (p<0.001) reduction | Plasma glucose Mean [3, 30]: 17.81 mM | Plasma insulin % of vehicle [3, 30]: 227.2% | Plasma insulin Mean [3, 30]: 8.99 ng/mL
